Columns and labels:
Format in all cases: physicochemical
[1] = Dynamic vapor sorption (DVS); conditions: at 80% RH, 25.0±1.0° C.
Experimental: Dynamic Vapor Sorption (DVS): Dynamic moisture adsorption and desorption was studied using IGA Sorp (Hidden Isochema Ltd.Warrington, UK). About 5 mg (3˜5 mg) of a prepared sample was placed in a sample basket and hung in the measuring chamber of an IGA Sorp. For an isotherm test, the chamber temperature is maintained by a water bath at constant 25.0±1.0° C. The sample was tested at a targeted RH range from 0% to 90% full cycle in step mode. The analysis is performed in 10% increment. Time duration at each RH was set as […] Solid State Characterizaton: Form I of Compound 1 hydrochloride was characterized by XRPD (FIG. 1), TGA (FIG. 2), DSC (FIG. 3), DVS (FIG. 4). […] The crystal form of the initial drug substance is assigned as Form I.

[2] = Interconversion study (slurries of mixed forms in ethyl acetate or ethanol, XRPD); conditions: ambient condition, hydrochloride
Experimental: (§1) In an interconversion study, a mixture of all identified crystal forms turned into Form I after slurry experiments in ethyl acetate or ethanol. […] The XRPD patterns and microscopy images of the three crystal forms are shown in FIG. 6 and FIG. 7, respectively.
Interconversion Study: Interconversion experiments were carried out by making slurries containing the same amount of different forms solids in ethyl acetate or ethanol. The slurries were kept stirring for days at ambient condition. The insoluble solids were recovered by filtration and examined using XRPD.
Interconversion experiments were performed with the various crystalline forms. Samples of equal amount of Form I mixed with Form II in solvents (ethyl acetate or ethanol) were slurried at ambient condition with covering. The remaining solids were collected by filtration and examined by XRPD. […] Some observed differences in the —OH stretch region at 3500 cm−1 in FTIR were most likely due to the preferred orientation which may be caused by particle size and morphology difference.

[3] = Physical stability of crystal forms at ambient conditions; conditions: converted into Form I or a mixture of Form I and its free base
From the text: Methods: Three crystal forms of 2-hydroxy-6-((2-(1-isopropyl-1H-pyrazol-5-yl)pyridin-3-yl)methoxy)benzaldehyde hydrochloride with different XRPD patterns were identified in this study based on a matrix of crystallizations in various solvents, screened in 96-wells as described below. An initial drug substance was assigned as Form I. Form I was also obtained in numerous conditions during solvent crystallization in the 96-well screen and in slurry studies. Form II and Form III were also generated. Solids obtained were characterized by X-ray powder diffraction (XRPD), differential scanning calorimetry (DSC), thermogravimetry (TGA), polarizing microscope (PLM) and Fourier transform infrared spectrometer (FTIR).
as §1

[4] = Heating to 80° C. by TGA, then XRPD; conditions: heated to 80° C. by TGA
Experimental: Powder X-RayDiffraction (XRPD): The solid samples were examined using X-ray diffractometer (Bruker D8 advance). The system is equipped with LynxEye detector. The samples were scanned from 3 to 40° 2θ, at a step size 0.02° 2θ. The tube voltage and current were 40 KV and 40 mA respectively. The sample was transferred from sample container onto zero background XRD holder and gently ground. TGA Analysis: TGA analysis was carried out on a TA Instruments TGA Q500. Samples was placed in a tarred platinum or aluminum pan, automatically weighed and inserted into the TGA furnace. The samples were heated at a rate of 10° C./min to final temperature of 300° C. The purge gas is nitrogen for balance at 40 ml/min and for the sample at 60 ml/min, respectively. Scale-up of Form II: 60 mg or 40 mg of Compound 1 hydrochloride was dissolved in 3 mL of ethanol or 1-butanol, respectively. Both solutions were filtered, filtrates were collected and then the two filtrates were combined in (1:1) volume ratio. The resulting solution was allowed to evaporate at ambient condition to dryness to yield Form II.

SMILES: CC(C)n1nccc1-c1ncccc1COc1cccc(O)c1C=O.Cl [Form I, 2-hydroxy-6-((2-(1-isopropyl-1H-pyrazol-5-yl)pyridin-3-yl)methoxy)benzaldehyde hydrochloride]
- water picked up (DVS profile) [1]: < 1%
- outcome of interconversion (slurry) experiments / relative thermodynamic stability [2]: the most thermodynamically stable form

SMILES: CC(C)n1nccc1-c1ncccc1COc1cccc(O)c1C=O.Cl [Form II, 2-hydroxy-6-((2-(1-isopropyl-1H-pyrazol-5-yl)pyridin-3-yl)methoxy)benzaldehyde hydrochloride]
- stability of crystal form at ambient conditions [3]: unstable at ambient conditions
- outcome of interconversion (slurry) experiments / relative thermodynamic stability [2]: transforms almost entirely to Form I crystals
- XRPD after heating [4]: remained unchanged

SMILES: CC(C)n1nccc1-c1ncccc1COc1cccc(O)c1C=O.Cl [Form III, 2-hydroxy-6-((2-(1-isopropyl-1H-pyrazol-5-yl)pyridin-3-yl)methoxy)benzaldehyde hydrochloride]
- stability of crystal form at ambient conditions [3]: unstable at ambient conditions

— US20160207904A1, “CRYSTALLINE 2-HYDROXY-6-((2-(1-ISOPROPYL-1H-PYRAZOL-5-YL)PYRIDIN-3-YL)METHOXY)BENZALDEHYDE ANSOLVATE SALTS” (GLOBAL BLOOD THERAPEUTICS, INC., priority 2013, published 2016)
